Measured values as given in the supplement of paper PMC13380429.

Columns and labels:
[1] = system: A549-ACE2 infected with SARS-CoV-2; experiment: SARS-CoV-2 infection rate relative to DMSO; higher = more infection; details: 24 h
HepG2 [2] = experiment: drug sensitivity score (DSS) for viability; higher = more toxic; extreme values may be limits of the assay; details: 72 h
Vero E6 [3] = experiment: as above; details: 72 h
Caco-2 [4] = experiment: as above; details: 72 h
U2OS [5] = experiment: as above; details: 72 h
Calu-3 [6] = experiment: as above; details: 72 h
HepG2 [7] = experiment: relative viability EC50 (midpoint between 100% and the lowest measured viability); higher = less toxic; details: 72 h
Vero E6 [8] = experiment: as above; details: 72 h
Calu-3 [9] = experiment: as above; details: 72 h
A549-ACE2 [10] = experiment: drug-induced phospholipidosis relative to tamoxifen; higher = more phospholipidosis
A549-ACE2 [11] = experiment: phospholipidosis EC50; higher = less potent phospholipidosis inducer
[12] = system: A549-ACE2 infected with SARS-CoV-2; experiment: cell count relative to DMSO; higher = less toxic; details: 24 h
[13] = system: A549-ACE2 infected with SARS-CoV-2; experiment: morphology score (similarity to uninfected cells); higher = more like uninfected cells; details: 24 h
HepG2 [14] = experiment: cell viability relative to DMSO; higher = less toxic; details: 72 h
Vero E6 [15] = experiment: as above; details: 72 h
Caco-2 [16] = experiment: as above; details: 72 h
U2OS [17] = experiment: as above; details: 72 h
Calu-3 [18] = experiment: as above; details: 72 h
Caco-2 [19] = experiment: relative viability EC50 (midpoint between 100% and the lowest measured viability); higher = less toxic; details: 72 h
U2OS [20] = experiment: as above; details: 72 h

CCN(CC)CC1CCN(c2ncc3ncnc(Nc4ccc(F)c(Cl)c4)c3n2)CC1 [BIBU-1361]
Details	SARS-CoV-2 infection rate [%]	cell count [%]	cell viability [%]	morphology score	phospholipidosis EC50 [µM]
A549-ACE2 [11], 24 h	–	–	–	–	3.2
A549-ACE2 [11], 48 h	–	–	–	–	3.88
A549-ACE2 [11], 72 h	–	–	–	–	3.9
Caco-2 [16], 1 nM	–	–	98	–	–
Caco-2 [16], 10 nM	–	–	85.1	–	–
Caco-2 [16], 100 nM	–	–	103	–	–
Caco-2 [16], 1000 nM	–	–	74.1	–	–
Caco-2 [16], 10000 nM	–	–	50.3	–	–
Calu-3 [18], 1 nM	–	–	100	–	–
Calu-3 [18], 10 nM	–	–	100	–	–
Calu-3 [18], 100 nM	–	–	90.7	–	–
Calu-3 [18], 1000 nM	–	–	56.7	–	–
Calu-3 [18], 10000 nM	–	–	8.7	–	–
HepG2 [14], 1 nM	–	–	100	–	–
HepG2 [14], 10 nM	–	–	100	–	–
HepG2 [14], 100 nM	–	–	106	–	–
HepG2 [14], 1000 nM	–	–	90	–	–
HepG2 [14], 10000 nM	–	–	40.4	–	–
U2OS [17], 1 nM	–	–	100	–	–
U2OS [17], 10 nM	–	–	104	–	–
U2OS [17], 100 nM	–	–	101	–	–
U2OS [17], 1000 nM	–	–	96.6	–	–
U2OS [17], 10000 nM	–	–	57.3	–	–
Vero E6 [15], 1 nM	–	–	97.3	–	–
Vero E6 [15], 10 nM	–	–	96.4	–	–
Vero E6 [15], 100 nM	–	–	93.1	–	–
Vero E6 [15], 1000 nM	–	–	63.2	–	–
Vero E6 [15], 10000 nM	–	–	42.9	–	–
[1], 0.3 µM	98	–	–	–	–
[1], 3 µM	26	–	–	–	–
[1], 10 µM	27	–	–	–	–
[1], 30 µM	90	–	–	–	–
[12], 0.3 µM	–	105	–	–	–
[12], 3 µM	–	117	–	–	–
[12], 10 µM	–	122	–	–	–
[12], 30 µM	–	72	–	–	–
[13], 0.3 µM	–	–	–	0.01	–
[13], 3 µM	–	–	–	0.87	–
[13], 10 µM	–	–	–	0.28	–
[13], 30 µM	–	–	–	-0.37	–

Details	drug sensitivity score	relative viability EC50
Caco-2 [4]	5.9	–
Calu-3 [6]	10.1	–
Calu-3 [9]	–	1.02 µM
HepG2 [2]	4.9	–
HepG2 [7]	–	1890 nM
U2OS [5]	2.7	–
Vero E6 [3]	7.8	–
Vero E6 [8]	–	0.573 µM

drug-induced phospholipidosis [%], A549-ACE2 [10]
Details	0.3 µM	0.833333 µM	3.33333 µM	6.66667 µM	10 µM	30 µM
24 h	2.83	15.5	75.3	121	120	99.8
48 h	4.06	11.5	65.6	111	126	–
72 h	4.98	9.71	51.2	111	123	–

Cc1ccc(C(=O)Nc2cccc(C(F)(F)F)c2)cc1Nc1nc(-c2cccnc2)nc2c1cnn2C [NVP-BHG712]
Details	SARS-CoV-2 infection rate [%]	cell count [%]	cell viability [%]	morphology score	phospholipidosis EC50 [µM]
A549-ACE2 [11], 24 h	–	–	–	–	1.65
A549-ACE2 [11], 48 h	–	–	–	–	2.21
A549-ACE2 [11], 72 h	–	–	–	–	3.75
Caco-2 [16], 1 nM	–	–	93.9	–	–
Caco-2 [16], 10 nM	–	–	93.5	–	–
Caco-2 [16], 100 nM	–	–	101	–	–
Caco-2 [16], 1000 nM	–	–	96.6	–	–
Caco-2 [16], 10000 nM	–	–	107	–	–
Calu-3 [18], 1 nM	–	–	100	–	–
Calu-3 [18], 10 nM	–	–	95.2	–	–
Calu-3 [18], 100 nM	–	–	96.3	–	–
Calu-3 [18], 1000 nM	–	–	108	–	–
Calu-3 [18], 10000 nM	–	–	102	–	–
HepG2 [14], 1 nM	–	–	117	–	–
HepG2 [14], 10 nM	–	–	104	–	–
HepG2 [14], 100 nM	–	–	96.5	–	–
HepG2 [14], 1000 nM	–	–	48.6	–	–
HepG2 [14], 10000 nM	–	–	74.1	–	–
U2OS [17], 1 nM	–	–	95.7	–	–
U2OS [17], 10 nM	–	–	94.3	–	–
U2OS [17], 100 nM	–	–	109	–	–
U2OS [17], 1000 nM	–	–	95.5	–	–
U2OS [17], 10000 nM	–	–	105	–	–
Vero E6 [15], 1 nM	–	–	96.5	–	–
Vero E6 [15], 10 nM	–	–	102	–	–
Vero E6 [15], 100 nM	–	–	98.1	–	–
Vero E6 [15], 1000 nM	–	–	109	–	–
Vero E6 [15], 10000 nM	–	–	108	–	–
[1], 0.3 µM	99	–	–	–	–
[1], 3 µM	68	–	–	–	–
[1], 10 µM	41	–	–	–	–
[1], 30 µM	84	–	–	–	–
[12], 0.3 µM	–	98	–	–	–
[12], 3 µM	–	111	–	–	–
[12], 10 µM	–	69	–	–	–
[12], 30 µM	–	93	–	–	–
[13], 0.3 µM	–	–	–	-0.1	–
[13], 3 µM	–	–	–	0.35	–
[13], 10 µM	–	–	–	0.14	–
[13], 30 µM	–	–	–	0.25	–

Details	drug sensitivity score	relative viability EC50
Caco-2 [4]	0	–
Caco-2 [19]	–	> 10 µM
Calu-3 [6]	0	–
Calu-3 [9]	–	> 10 µM
HepG2 [2]	9.9	–
HepG2 [7]	–	264 nM
U2OS [5]	0	–
U2OS [20]	–	> 10 µM
Vero E6 [3]	0	–
Vero E6 [8]	–	> 10 µM

drug-induced phospholipidosis [%], A549-ACE2 [10]
Details	0.3 µM	0.833333 µM	3.33333 µM	6.66667 µM	10 µM	30 µM
24 h	3.95	19.7	113	126	120	138
48 h	7.5	21.5	139	176	183	–
72 h	7.15	18.8	137	208	244	–

CN1CCN(CCCN2c3ccccc3Sc3ccc(Cl)cc32)CC1 [prochlorperazine]
Details	SARS-CoV-2 infection rate [%]	cell count [%]	cell viability [%]	morphology score	phospholipidosis EC50 [µM]
A549-ACE2 [11], 24 h	–	–	–	–	3.19
A549-ACE2 [11], 48 h	–	–	–	–	4.05
A549-ACE2 [11], 72 h	–	–	–	–	12.5
Caco-2 [16], 1 nM	–	–	100	–	–
Caco-2 [16], 10 nM	–	–	84.1	–	–
Caco-2 [16], 100 nM	–	–	96.9	–	–
Caco-2 [16], 1000 nM	–	–	99.8	–	–
Caco-2 [16], 10000 nM	–	–	76.6	–	–
Calu-3 [18], 1 nM	–	–	106	–	–
Calu-3 [18], 10 nM	–	–	103	–	–
Calu-3 [18], 100 nM	–	–	105	–	–
Calu-3 [18], 1000 nM	–	–	105	–	–
Calu-3 [18], 10000 nM	–	–	93.2	–	–
HepG2 [14], 1 nM	–	–	107	–	–
HepG2 [14], 10 nM	–	–	102	–	–
HepG2 [14], 100 nM	–	–	97	–	–
HepG2 [14], 1000 nM	–	–	106	–	–
HepG2 [14], 10000 nM	–	–	55.5	–	–
U2OS [17], 1 nM	–	–	103	–	–
U2OS [17], 10 nM	–	–	94.5	–	–
U2OS [17], 100 nM	–	–	98.6	–	–
U2OS [17], 1000 nM	–	–	94	–	–
U2OS [17], 10000 nM	–	–	91.4	–	–
Vero E6 [15], 1 nM	–	–	96	–	–
Vero E6 [15], 10 nM	–	–	92.5	–	–
Vero E6 [15], 100 nM	–	–	101	–	–
Vero E6 [15], 1000 nM	–	–	97.4	–	–
Vero E6 [15], 10000 nM	–	–	81	–	–
[1], 0.3 µM	95	–	–	–	–
[1], 3 µM	29	–	–	–	–
[1], 10 µM	12	–	–	–	–
[1], 30 µM	50	–	–	–	–
[12], 0.3 µM	–	100	–	–	–
[12], 3 µM	–	123	–	–	–
[12], 10 µM	–	117	–	–	–
[12], 30 µM	–	64	–	–	–
[13], 0.3 µM	–	–	–	0	–
[13], 3 µM	–	–	–	0.84	–
[13], 10 µM	–	–	–	0.79	–
[13], 30 µM	–	–	–	0.19	–

Details	drug sensitivity score	relative viability EC50 [µM]
Caco-2 [4]	0.9	–
Caco-2 [19]	–	> 10
Calu-3 [6]	0	–
Calu-3 [9]	–	> 10
HepG2 [2]	1.9	–
U2OS [5]	0	–
U2OS [20]	–	> 10
Vero E6 [3]	0.9	–
Vero E6 [8]	–	> 10

drug-induced phospholipidosis [%], A549-ACE2 [10]
Details	0.3 µM	0.833333 µM	3.33333 µM	6.66667 µM	10 µM	30 µM
24 h	1.08	10.5	48.6	76.3	92.2	56.6
48 h	0.82	7.81	45.8	83.3	94.4	–
72 h	3.57	9.54	35	75	104	–
